# From US7803930B2, “Antisense modulation of apolipoprotein B-expression” (Isis Pharmaceuticals, Inc., priority 2002, dated 2010)
# In the oligonucleotide strings, read from the 5' end, every base follows the letter of its sugar. An asterisk marks phosphorothioate; unmarked linkages are phosphodiester. Other units and linkages are bracketed, terminal groups are in braces. A string of capitals states the bases alone. e = 2'-O-(2-methoxyethyl) (MOE); [5mC] = 5-methylcytosine; d = 2'-deoxy (DNA)
# What was measured:
# [1] = tested on: mouse apolipoprotein B mRNA; assay: Inhibition of mouse apolipoprotein B mRNA levels in primary mouse hepatocytes, real-time PCR; assay type: cell-based; conditions: for % INHIB: Table 3, 150 nM, averages from two experiments; for Percent Inhibition 50 nM: Table 4, 50 nM; for Percent Inhibition 150 nM: Table 4, 150 nM; for Percent Inhibition 300 nM: Table 4, 300 nM
# Experimental: Primary mouse hepatocytes were prepared from CD-1 mice purchased from Charles River Labs (Wilmington, Mass.) and were routinely cultured in Hepatoyte Attachment Media (Gibco) supplemented with 10% Fetal Bovine Serum (Gibco/Life Technologies, Gaithersburg, Md.), 250 nM dexamethasone (Sigma), and 10 nM bovine insulin (Sigma). Cells were seeded into 96-well plates (Falcon-Primaria #3872) at a density of 10000 cells/well for use in RT-PCR analysis.
# When cells reached 80% confluency, they were treated with oligonucleotide. For cells grown in 96-well plates, wells were washed once with 200 μL OPTI-MEM™-1 reduced-serum medium (Gibco BRL) and then treated with 130 μL of OPTI-MEM™-1 containing 3.75 μg/mL LIPOFECTIN™ (Gibco BRL) and the desired concentration of oligonucleotide. After 4-7 hours of treatment, the medium was replaced with fresh medium. Cells were harvested 16-24 hours after oligonucleotide treatment.
# Quantitation of apolipoprotein B mRNA levels was determined by real-time quantitative PCR using the ABI PRISM™ 7700 Sequence Detection System (PE-Applied Biosystems, Foster City, Calif.) according to manufacturer's instructions. This is a closed-tube, non-gel-based, fluorescence detection system which allows high-throughput quantitation of polymerase chain reaction (PCR) products in real-time. As opposed to standard PCR, in which amplification products are quantitated after the PCR is completed, products in real-time quantitative PCR are quantitated as they accumulate. This is accomplished by including in the PCR reaction an oligonucleotide probe that anneals specifically between the forward and reverse PCR primers, and contains two fluorescent dyes. A reporter dye (e.g., JOE, FAM, or VIC, obtained from either Operon Technologies Inc., Alameda, Calif. or PE-Applied Biosystems, Foster City, Calif.) is attached to the 5′ end of the probe and a quencher dye (e.g., TAMRA, obtained from either Operon Technologies Inc., Alameda, Calif. or PE-Applied Biosystems, Foster City, Calif.) is attached to the 3′ end of the probe. When the probe and dyes are intact, reporter dye emission is quenched by the proximity of the 3′ quencher dye. During amplification, annealing of the probe to the target sequence creates a substrate that can be cleaved by the 5′-exonuclease activity of Taq polymerase. […] With each cycle, additional reporter dye molecules are cleaved from their respective probes, and the fluorescence intensity is monitored at regular intervals by laser optics built into the ABI PRISM™ 7700 Sequence Detection System. In each assay, a series of parallel reactions containing serial dilutions of mRNA from untreated control samples generates a standard curve that is used to quantitate the percent inhibition after antisense oligonucleotide treatment of test samples.
# Probes and primers to mouse apolipoprotein B were designed to hybridize to a mouse apolipoprotein B sequence, using published sequence information (GenBank accession number M35186, incorporated herein as SEQ ID NO: 10). For mouse apolipoprotein B the PCR primers were: forward primer: CGTGGGCTCCAGCATTCTA (SEQ ID NO: 11) reverse primer: […] (SEQ ID NO: 12) and the PCR probe was: FAM-[…]-TAMRA SEQ ID NO: 13) where FAM (PE-Applied Biosystems, Foster City, Calif.) is the fluorescent reporter dye) and TAMRA (PE-Applied Biosystems, Foster City, Calif.) is the quencher dye. For mouse GAPDH the PCR primers were: forward primer: […] (SEQ ID NO: 14) reverse primer: […] (SEQ ID NO:15) and the PCR probe was: 5′ JOE-[…]-TAMRA 3′ (SEQ ID NO: 16) where JOE (PE-Applied Biosystems, Foster City, Calif.) is the fluorescent reporter dye) and TAMRA (PE-Applied Biosystems, Foster City, Calif.) is the quencher dye.
# In accordance with the present invention, a series of oligonucleotides was designed to target different regions of the mouse apolipoprotein B RNA, using published sequence (GenBank accession number M35186, incorporated herein as SEQ ID NO: 10). […]
# [2] = LDLr(-/-) mice dose response (Example 44): liver enzyme, cholesterol and triglyceride levels; assay type: in vivo, mouse; conditions: 50 mg/kg i.p. twice a week, six weeks
# Experimental: LDLr(−/−) mice, purchased from Taconic (Germantown, N.Y.) were used to evaluate antisense oligonucleotides for their potential to lower apolipoprotein B mRNA or protein levels, as well as phenotypic endpoints associated with apolipoprotein B. LDLr(−/−) mice were separated into groups of males and females. LDLr(−/−) mice were dosed intraperitoneally twice a week for six weeks with either 10, 25, or 50 mg/kg of ISIS 147764 (SEQ ID NO: 109) or ISIS 270906 (SEQ ID NO: 856) which is a 4 base mismatch of ISIS 147764, or with saline, or 20 mg/kg of Atorvastatin. At study termination animals were sacrificed and evaluated for several phenotypic markers.
Substance,% INHIB [1] [%],other results
147493 (eG*e[5mC]*eT*eT*e[5mC]*dA*dT*dT*dA*dT*dA*dG*dG*dA*dG*eG*eT*eG*eG*eT; antisense) [compound 147493],41,
147494 (eA*e[5mC]*eA*eA*e[5mC]*dT*dG*dG*dG*dA*dT*dA*dG*dT*dG*eT*eA*eG*e[5mC]*e[5mC]; antisense) [compound 147494],84,
147495 (eG*eT*eT*eA*eG*dG*dA*d[5mC]*d[5mC]*dA*dG*dG*dG*dA*dT*eT*eG*eT*eG*eA; antisense) [compound 147495],0,
147496 (eA*e[5mC]*e[5mC]*eA*eT*dG*dG*dA*dA*dA*dA*d[5mC]*dT*dG*dG*e[5mC]*eA*eA*e[5mC]*eT; antisense) [compound 147496],19,
147498 (eT*eG*eG*eG*e[5mC]*dA*dA*d[5mC]*dG*dA*dT*dA*dT*d[5mC]*dT*eG*eA*eT*eT*eG; antisense) [compound 147498],0,
147499 (e[5mC]*eT*eG*e[5mC]*eA*dG*dG*dG*d[5mC]*dG*dT*d[5mC]*dA*dG*dT*eG*eA*e[5mC]*eA*eA; antisense) [compound 147499],29,
147501 (e[5mC]*eT*eT*eG*eG*dT*dT*dA*dA*dA*d[5mC]*dT*dA*dA*dT*eG*eG*eT*eG*e[5mC]; antisense) [compound 147501],18,
147502 (eA*eT*eG*eG*eG*dA*dG*d[5mC]*dA*dT*dG*dG*dA*dG*dG*eT*eT*eG*eG*e[5mC]; antisense) [compound 147502],16,
147503 (eA*eA*eT*eG*eG*dA*dT*dG*dA*dT*dG*dA*dA*dA*d[5mC]*eA*eG*eT*eG*eG; antisense) [compound 147503],26,
147505 (eG*eG*eA*eA*eG*dT*dG*dA*dG*dA*d[5mC]*dT*dT*dT*d[5mC]*eT*eA*eA*eG*e[5mC]; antisense) [compound 147505],76,
147506 (eA*eG*eG*eA*eA*dG*dG*dA*dA*d[5mC]*dT*d[5mC]*dT*dT*dG*eA*eT*eA*eT*eT; antisense) [compound 147506],58,
147507 (eA*eT*eT*eG*eG*d[5mC]*dT*dT*d[5mC]*dA*dT*dT*dG*dG*d[5mC]*eA*eA*e[5mC]*eA*e[5mC]; antisense) [compound 147507],81,
147759 (eA*eG*eG*eT*eG*dA*dG*dG*dA*dA*dG*dT*dT*dG*dG*eA*eA*eT*eT*e[5mC]; antisense) [compound 147759],19,
147761 (eG*eT*eT*e[5mC]*eA*dT*dG*dG*dA*dT*dT*d[5mC]*d[5mC]*dT*dT*e[5mC]*eA*eG*eG*eA; antisense) [compound 147761],45,
147762 (eA*eT*eG*e[5mC]*eT*d[5mC]*d[5mC]*dA*dT*dT*d[5mC]*dT*d[5mC]*dA*d[5mC]*eA*eT*eG*e[5mC]*eT; antisense) [compound 147762],46,
147763 (eT*eG*e[5mC]*eG*eA*d[5mC]*dT*dG*dT*dG*dT*d[5mC]*dT*dG*dA*eT*eT*eT*e[5mC]*e[5mC]; antisense) [compound 147763],34,
147765 (eA*eG*eG*e[5mC]*e[5mC]*d[5mC]*dA*dG*dT*dT*d[5mC]*d[5mC]*dA*dT*dG*eA*e[5mC]*e[5mC]*e[5mC]*eT; antisense) [compound 147765],59,
147766 (eG*eG*eA*eG*e[5mC]*d[5mC]*d[5mC]*dA*d[5mC]*dG*dT*dG*d[5mC]*dT*dG*eA*eG*eA*eT*eT; antisense) [compound 147766],59,
147767 (e[5mC]*eG*eT*e[5mC]*e[5mC]*dT*dT*dG*dA*dG*d[5mC]*dA*dG*dT*dG*e[5mC]*e[5mC]*e[5mC]*eG*eA; antisense) [compound 147767],5,
147768 (e[5mC]*e[5mC]*e[5mC]*eA*eT*dA*dT*dG*dG*dA*dG*dA*dA*dA*dT*e[5mC]*e[5mC]*eT*eT*e[5mC]; antisense) [compound 147768],24,
147769 (e[5mC]*eA*eT*eG*e[5mC]*d[5mC]*dT*dG*dG*dA*dA*dG*d[5mC]*d[5mC]*dA*eG*eT*eG*eT*e[5mC]) [compound 147769],89,Percent Inhibition 50 nM [1]: 3%; Percent Inhibition 150 nM [1]: 14%; Percent Inhibition 300 nM [1]: 28%
147770 (eG*eT*eG*eT*eT*dG*dA*dA*dT*d[5mC]*d[5mC]*d[5mC]*dT*dT*dG*eA*eA*eA*eT*e[5mC]; antisense) [compound 147770],67,
147771 (eG*eG*eT*eA*eA*dA*dG*dT*dT*dG*d[5mC]*d[5mC]*d[5mC]*dA*dT*eG*eG*e[5mC]*eT*eG; antisense) [compound 147771],68,
147772 (antisense eG*eT*eT*eA*eT*dA*dA*dA*dG*dT*d[5mC]*d[5mC]*dA*dG*d[5mC]*eA*eT*eT*eG*eG) [compound 147772],78,
147773 (antisense e[5mC]*eA*eT*e[5mC]*eA*dG*dA*d[5mC]*dG*dT*dG*dA*dT*dG*dT*eT*e[5mC]*e[5mC]*e[5mC]*eT) [compound 147773],85,
147774 (antisense eT*eG*eG*e[5mC]*eT*dA*dG*dT*dT*dT*d[5mC]*dA*dA*dT*d[5mC]*e[5mC]*e[5mC]*e[5mC]*eT*eT) [compound 147774],84,
147775 (antisense e[5mC]*eT*eG*eT*e[5mC]*dA*dT*dG*dA*d[5mC]*dT*dG*d[5mC]*d[5mC]*d[5mC]*eT*eT*eT*eA*e[5mC]) [compound 147775],52,
147776 (antisense eG*e[5mC]*eT*eT*eG*dA*dA*dG*dT*dT*d[5mC]*dA*dT*dT*dG*eA*eG*eA*eA*eT) [compound 147776],92,Percent Inhibition 50 nM [1]: 0%; Percent Inhibition 150 nM [1]: 17%; Percent Inhibition 300 nM [1]: 44%
147778 (antisense eT*e[5mC]*eA*eG*eA*dT*dA*dT*dA*d[5mC]*dA*dT*dT*dG*dG*e[5mC]*eT*eT*e[5mC]*eA) [compound 147778],14,
"270906 (antisense GTCCCTCAACATCTGAATGC; listed as DNA, chemistry not given here) [compound 270906]",,Lipoproteins CHOL ([2]; female LDLr(-/-) mice): 564.6 mg/dL; Lipoproteins HDL ([2]; female LDLr(-/-) mice): 200.0 mg/dL; Lipoproteins LDL ([2]; female LDLr(-/-) mice): 310.0 mg/dL; Lipoproteins TRIG ([2]; female LDLr(-/-) mice): 240.4 mg/dL; Liver Enzymes ALT ([2]; female LDLr(-/-) mice): 88.6 IU/L; Liver Enzymes AST ([2]; female LDLr(-/-) mice): 96.0 IU/L; Lipoproteins CHOL ([2]; male LDLr(-/-) mice): 941.0 mg/dL; Lipoproteins HDL ([2]; male LDLr(-/-) mice): 244.2 mg/dL; Lipoproteins LDL ([2]; male LDLr(-/-) mice): 541.9 mg/dL; Lipoproteins TRIG ([2]; male LDLr(-/-) mice): 844.8 mg/dL; Liver Enzymes ALT ([2]; male LDLr(-/-) mice): 348.0 IU/L; Liver Enzymes AST ([2]; male LDLr(-/-) mice): 167.4 IU/L
